Test results as given in BindingDB's records for doi:10.1016/S1074-5521(01)00067-9 (University of California San Francisco, 2001).

What was measured:
Experiment in all cases: Inhibition Assay
Thymidylate synthase [1] = biological target: T1, Thymidylate synthase (Lacticaseibacillus casei, UniProt P00469)
T1 sequence (P00469 whole entry): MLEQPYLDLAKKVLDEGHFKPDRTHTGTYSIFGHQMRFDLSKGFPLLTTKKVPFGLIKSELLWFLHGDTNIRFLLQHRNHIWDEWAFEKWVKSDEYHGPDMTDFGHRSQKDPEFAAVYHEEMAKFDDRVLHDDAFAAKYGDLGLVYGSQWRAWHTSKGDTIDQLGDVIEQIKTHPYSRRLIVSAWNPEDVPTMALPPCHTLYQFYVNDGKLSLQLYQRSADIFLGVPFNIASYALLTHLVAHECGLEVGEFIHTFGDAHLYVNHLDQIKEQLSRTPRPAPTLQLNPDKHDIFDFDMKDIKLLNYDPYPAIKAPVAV
Description: (§1) Affinity assay of specificities of thymidylate synthase (TS)inhibitors

Thymidylate synthase [2] = biological target: Thymidylate synthase (Homo sapiens, UniProt P04818)
Description: as §1

Thymidylate synthase [3] = biological target: Thymidylate synthase (Escherichia coli (strain K12), UniProt P0A884)
Description: as §1

Chain of Thymidylate synthase (Homo sapiens, UniProt P04818) (P04818 whole entry): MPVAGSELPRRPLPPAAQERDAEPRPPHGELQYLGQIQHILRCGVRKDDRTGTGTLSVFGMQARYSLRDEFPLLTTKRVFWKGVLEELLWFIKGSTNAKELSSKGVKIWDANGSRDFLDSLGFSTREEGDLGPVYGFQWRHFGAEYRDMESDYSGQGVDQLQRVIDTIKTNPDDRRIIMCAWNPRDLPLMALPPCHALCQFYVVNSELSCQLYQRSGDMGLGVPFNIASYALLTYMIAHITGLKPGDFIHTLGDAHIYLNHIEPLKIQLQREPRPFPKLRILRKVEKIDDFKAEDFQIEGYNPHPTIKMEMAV
Chain of Thymidylate synthase (Escherichia coli (strain K12), UniProt P0A884) (P0A884 whole entry): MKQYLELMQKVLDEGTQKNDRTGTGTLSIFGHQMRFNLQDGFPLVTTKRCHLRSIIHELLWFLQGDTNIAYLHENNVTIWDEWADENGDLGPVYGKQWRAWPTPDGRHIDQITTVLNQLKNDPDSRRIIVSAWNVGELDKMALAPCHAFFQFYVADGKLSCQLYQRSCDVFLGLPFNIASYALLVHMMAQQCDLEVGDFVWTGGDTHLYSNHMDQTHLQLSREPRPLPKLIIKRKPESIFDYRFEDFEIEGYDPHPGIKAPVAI

## CCCCN(CCCC)c1cccc2c(S(=O)(=O)Oc3ccc(CC(N)C(=O)O)cc3)cccc12 (centres undefined)
Thymidylate synthase [1]
  IC50: 53 µM

## NC(Cc1ccc(OC(=O)c2ccc3ccccc3c2)cc1)C(=O)O (centres undefined) [2-naphthylcarbonyl]
Thymidylate synthase [1]
  IC50: 70 µM

## NC(Cc1ccc(OS(=O)(=O)c2ccc3ccccc3c2)cc1)C(=O)O (centres undefined) [2-naphthylsulfonyl]
Thymidylate synthase [1]
  IC50: 4.7 µM

## CN(C)c1ccc(/N=N\c2ccc(S(=O)(=O)Oc3ccc(CC(N)C(=O)O)cc3)cc2)cc1 (centres undefined) [4'-(dimethylamino)azobenzene-4-sulfonyl]
Thymidylate synthase [1]
  IC50: > 100 µM

## CN(C)c1cccc2c(S(=O)(=O)NN)cccc12 [5-(dimethylamino)naphthalene-1-sulfonohydrazide]
Thymidylate synthase [2]
  IC50: 36 µM
Thymidylate synthase [3]
  IC50: 1.11 mM
Thymidylate synthase [1]
  IC50: 458 µM

## CN(C)c1cccc2c(S(=O)(=O)Oc3ccc(CC(N)C(=O)O)cc3)cccc12 [Dansyl derivatives 1A, (S) isomer]
Thymidylate synthase [2]
  IC50: 771 µM
Thymidylate synthase [3]
  IC50: 1.17 mM
